In ChEMBL document CHEMBL4014296, “Constituents with potent α-glucosidase inhibitory activity from Pueraria lobata (Willd.) ohwi” (Bioorg Med Chem Lett, 2017):
The source made the active and inactive calls. No cut-off for these calls is given here.

Experiments:
[1] = Inhibition of alpha glucosidase (unknown origin) using alpha PNPG as substrate at 0.25 mg/mL preincubated for 15 mins followed by substrate addition measured after 15 mins relative to control; settings: Homo sapiens
[2] = Inhibition of alpha glucosidase (unknown origin) using alpha PNPG as substrate at 0.125 mg/mL preincubated for 15 mins followed by substrate addition measured after 15 mins relative to control; settings: Homo sapiens
[3] = Inhibition of alpha glucosidase (unknown origin) using alpha PNPG as substrate at 0.5 mg/mL preincubated for 15 mins followed by substrate addition measured after 15 mins relative to control; settings: Homo sapiens
[4] = Inhibition of alpha glucosidase (unknown origin) using alpha PNPG as substrate preincubated for 15 mins followed by substrate addition measured after 15 mins; set-up: species or system Homo sapiens; settings: for inhibition: Homo sapiens
[5] = Inhibition of alpha glucosidase (unknown origin) using alpha PNPG as substrate at 0.0625 mg/mL preincubated for 15 mins followed by substrate addition measured after 15 mins relative to control; settings: Homo sapiens
[6] = Solubility of the compound; assay type: physicochemical
[7] = species: Homo sapiens; assay: Irreversible inhibition of alpha glucosidase (unknown origin) using alpha PNPG as substrate at 0.005 mg/mL
[8] = species: Homo sapiens; assay: Potency index, ratio of acarbose IC50 to compound IC50 for alpha glucosidase (unknown origin)
[9] = species: Homo sapiens; assay: Inhibition of alpha glucosidase (unknown origin) using alpha PNPG as substrate at 2.5 mg/mL preincubated for 15 mins followed by substrate addition measured after 15 mins relative to control
[10] = species: Homo sapiens; assay: Inhibition of alpha glucosidase (unknown origin) using alpha PNPG as substrate at 10 mg/mL preincubated for 15 mins followed by substrate addition measured after 15 mins relative to control
[11] = species: Homo sapiens; assay: Inhibition of alpha glucosidase (unknown origin) using alpha PNPG as substrate at 4.88 10^-4mg/ml preincubated for 15 mins followed by substrate addition measured after 15 mins relative to control
[12] = species: Homo sapiens; assay: Inhibition of alpha glucosidase (unknown origin) using alpha PNPG as substrate at 0.00391 mg/mL preincubated for 15 mins followed by substrate addition measured after 15 mins relative to control
[13] = species: Homo sapiens; assay: Inhibition of alpha glucosidase (unknown origin) using alpha PNPG as substrate at 5 mg/mL preincubated for 15 mins followed by substrate addition measured after 15 mins relative to control
[14] = species: Homo sapiens; assay: Inhibition of alpha glucosidase (unknown origin) using alpha PNPG as substrate at 1.25 mg/mL preincubated for 15 mins followed by substrate addition measured after 15 mins relative to control
[15] = species: Homo sapiens; assay: Inhibition of alpha glucosidase (unknown origin) using alpha PNPG as substrate at 9.77 10^-4mg/ml preincubated for 15 mins followed by substrate addition measured after 15 mins relative to control
[16] = species: Homo sapiens; assay: Inhibition of alpha glucosidase (unknown origin) using alpha PNPG as substrate at 0.00195 mg/mL preincubated for 15 mins followed by substrate addition measured after 15 mins relative to control
[17] = species: Homo sapiens; assay: Inhibition of alpha glucosidase (unknown origin) using alpha PNPG as substrate at 0.00781 mg/mL preincubated for 15 mins followed by substrate addition measured after 15 mins relative to control
[18] = species: Homo sapiens; assay: Non-competitive inhibition of alpha glucosidase (unknown origin) using varying levels of alpha PNPG substrate at 0.01 mg/mL by Lineweaver-Burk plot analysis
[19] = species: Homo sapiens; assay: Inhibition of alpha glucosidase (unknown origin) using alpha PNPG as substrate at 0.03125 mg/mL preincubated for 15 mins followed by substrate addition measured after 15 mins relative to control
[20] = species: Homo sapiens; assay: Reversible inhibition of alpha glucosidase (unknown origin) using alpha PNPG as substrate at 0.01 mg/mL
[21] = species: Homo sapiens; assay: Inhibition of alpha glucosidase (unknown origin) using alpha PNPG as substrate at 0.01563 mg/mL preincubated for 15 mins followed by substrate addition measured after 15 mins relative to control

| Structure (SMILES) | inhibition [1] [%] | inhibition [2] [%] | inhibition [3] [%] | IC50 [4] [µM] | inhibition [4] | inhibition [5] [%] | further results |
| --- | --- | --- | --- | --- | --- | --- | --- |
| CC1(C)C=Cc2cc3c(cc2O1)O[C@@H]1c2ccc(O)cc2OC[C@@]31O | 60.1 | 49.9 | 86 | 182 to 379 | Dose-dependent effect | 42.5 |  |
| COc1ccc2c(=O)cc(C(O)Cc3ccc(O)cc3)oc2c1 (stereo not drawn) |  |  |  |  |  |  | solubility [6]: Insoluble |
| C[C@H]1O[C@H](O[C@H]2[C@H](O)[C@@H](O)[C@@H](O[C@H]3[C@H](O)[C@@H](O)C(O)O[C@@H]3CO)O[C@@H]2CO)[C@H](O)[C@@H](O)[C@@H]1N[C@H]1C=C(CO)[C@@H](O)[C@H](O)[C@H]1O (stereo partly drawn) [ACARBOSE] |  |  |  | 2000 | Dose-dependent effect |  | inhibition [9]: 51.1%; inhibition [10]: 82.2%; inhibition [11]: 17.7%; inhibition [12]: 89.5%; inhibition [13]: 58.4%; inhibition [14]: 42.2%; inhibition [15]: 79.7%; inhibition [16]: 85.6% |
| COc1ccc(-c2coc3cc(O[C@@H]4O[C@H](CO)[C@@H](O)[C@H](O)[C@H]4O)ccc3c2=O)cc1 [ONONIN] | 56.3 | 31.6 | 74.9 | 423 | Dose-dependent effect | 29.4 |  |
| O=c1c(-c2ccc(O)cc2)coc2c([C@@H]3O[C@H](CO)[C@@H](O)[C@H](O)[C@H]3O)c(O)ccc12 [PUERARIN] | 41.5 | 21.9 | 78.3 | 524 | Dose-dependent effect | 5.26 |  |

The next lines start with results.

| inhibition [1] [%] | inhibition [2] [%] | inhibition [3] [%] | IC50 [4] [µM] | inhibition [4] | inhibition [5] [%] | Structure (SMILES) | further results |
| --- | --- | --- | --- | --- | --- | --- | --- |
|  |  |  | 1.79 | Dose-dependent effect |  | CC(C)=CCC/C(C)=C/Cc1cc2c3c(oc2cc1O)C(O)(O)c1ccc(O)cc1O3 | inhibition [7]: Active; Ratio IC50 [8]: 1120 |
|  |  |  | 23 | Dose-dependent effect |  | O=c1c(-c2ccc(O)cc2)coc2cc(O)ccc12 [DAIDZEIN] | inhibition [17]: 57.1%; inhibition [18]: Active; inhibition [12]: 34.3%; inhibition [19]: 72.8%; inhibition [20]: Active; Ratio IC50 [8]: 87; inhibition [21]: 59% |
| 77.3 | 66.8 | 84.8 | 178 to 254 | Dose-dependent effect | 41.2 | O=c1c(-c2ccc(O)cc2)coc2cc(O[C@@H]3O[C@H](CO)[C@@H](O)[C@H](O)[C@H]3O)ccc12 [DAIDZIN] |  |
